Reference: US11484561B2, “Morus extracts rich in N-acids of imino sugars and or pipecolic acids” (Phynova Limited, priority 2011, dated 2022)
Where a name gives a salt, the structure may show the parent alone.

Experiments:
Format in all cases: biochemical
[1] = tested on: naringinase (P. decumbens); assay: Glycosidase assay, naringinase (P. decumbens); settings: % inhibition
Description: (§1) The assays used p-nitrophenyl-substrates and commercial enzymes purchased from Sigma-Aldrich. Enzymes were assayed at 27° C. in 0.1M citric acid/0.2M disodium hydrogen phosphate buffers at the optimum pH for the enzyme. The incubation mixture consisted of 10 μl enzyme solution, 10 μl of 10 mg/ml aqueous solution of extract and 50 μl of the appropriate 5 mM p-nitrophenyl substrate made up in buffer at the optimum pH for the enzyme. The reactions were stopped by addition of 70 μl 0.4M glycine (pH 10.4) during the exponential phase of the reaction, which had been determined at the beginning using uninhibited assays in which water replaced mulberry fractions. Final absorbances were read at 405 nm using a Versamax microplate reader (Molecular Devices). Assays were carried out in triplicate, and the values given are means of the three replicates per assay. Results are expressed as % inhibition.
(§2) Substrates are 10 mM p-nitrophenyl-glycopyranosides. Enzymes are purchased from Sigma and run at the pH optima

[2] = target: T1, α-D-mannosidase (Jack bean) (Canavalia ensiformis, UniProt C0HJB3); assay: Glycosidase assay, α-D-mannosidase (Jack bean); settings: % inhibition
T1 construct: purchased Sigma-Aldrich
T1 sequence (C0HJB3 1-562 limits assumed): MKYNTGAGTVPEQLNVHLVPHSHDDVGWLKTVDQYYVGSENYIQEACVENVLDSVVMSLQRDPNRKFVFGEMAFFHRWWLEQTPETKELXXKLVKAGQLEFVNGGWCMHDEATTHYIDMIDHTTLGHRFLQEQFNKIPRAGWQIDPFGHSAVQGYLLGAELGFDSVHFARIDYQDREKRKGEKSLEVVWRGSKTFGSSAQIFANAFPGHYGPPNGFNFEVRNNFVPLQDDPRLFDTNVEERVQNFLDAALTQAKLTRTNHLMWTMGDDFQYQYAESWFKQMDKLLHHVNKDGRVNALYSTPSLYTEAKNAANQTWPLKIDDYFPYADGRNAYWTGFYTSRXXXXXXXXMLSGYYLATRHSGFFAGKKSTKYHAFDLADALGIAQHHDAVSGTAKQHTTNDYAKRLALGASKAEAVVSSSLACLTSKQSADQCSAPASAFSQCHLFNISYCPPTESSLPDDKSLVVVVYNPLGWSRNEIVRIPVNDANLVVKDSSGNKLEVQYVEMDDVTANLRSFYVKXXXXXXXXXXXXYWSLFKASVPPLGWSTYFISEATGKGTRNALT
Description: as §1, with “The reactions were stopped by addition of 70 μl 0.4M glycine (pH 10.4) during the exponential phase of the reaction, which had been determined at the beginning using uninhibited assays in which water replaced mulberry fractions.” left out
as §2

[3] = tested on: N-acetyl-β-D-gluc (Bovine kidney); assay: Glycosidase assay, N-acetyl-β-D-gluc (Bovine kidney)
Description: as §1, §2

[4] = tested on: α-D-glucosidase (Bacillus); assay: Glycosidase assay, α-D-glucosidase (Bacillus)
Description: as §1, §2

[5] = tested on: β-D-mannosidase Cellulomonas fimi; assay: Glycosidase assay, β-D-mannosidase (Cellulomonas fimi); settings: % inhibition; for β-D-mannosidase Cellulomonas fimi: Table 6, concentration not given (method: 10 mg/ml solution)
Description: as §1

α-D-glucosidase (rice) = target: T2, α-D-glucosidase (rice) (Oryza sativa subsp. japonica, UniProt Q653V7); assay: Glycosidase assay, α-D-glucosidase (rice)
T2 construct: purchased Sigma-Aldrich
T2 sequence (Q653V7 34-885): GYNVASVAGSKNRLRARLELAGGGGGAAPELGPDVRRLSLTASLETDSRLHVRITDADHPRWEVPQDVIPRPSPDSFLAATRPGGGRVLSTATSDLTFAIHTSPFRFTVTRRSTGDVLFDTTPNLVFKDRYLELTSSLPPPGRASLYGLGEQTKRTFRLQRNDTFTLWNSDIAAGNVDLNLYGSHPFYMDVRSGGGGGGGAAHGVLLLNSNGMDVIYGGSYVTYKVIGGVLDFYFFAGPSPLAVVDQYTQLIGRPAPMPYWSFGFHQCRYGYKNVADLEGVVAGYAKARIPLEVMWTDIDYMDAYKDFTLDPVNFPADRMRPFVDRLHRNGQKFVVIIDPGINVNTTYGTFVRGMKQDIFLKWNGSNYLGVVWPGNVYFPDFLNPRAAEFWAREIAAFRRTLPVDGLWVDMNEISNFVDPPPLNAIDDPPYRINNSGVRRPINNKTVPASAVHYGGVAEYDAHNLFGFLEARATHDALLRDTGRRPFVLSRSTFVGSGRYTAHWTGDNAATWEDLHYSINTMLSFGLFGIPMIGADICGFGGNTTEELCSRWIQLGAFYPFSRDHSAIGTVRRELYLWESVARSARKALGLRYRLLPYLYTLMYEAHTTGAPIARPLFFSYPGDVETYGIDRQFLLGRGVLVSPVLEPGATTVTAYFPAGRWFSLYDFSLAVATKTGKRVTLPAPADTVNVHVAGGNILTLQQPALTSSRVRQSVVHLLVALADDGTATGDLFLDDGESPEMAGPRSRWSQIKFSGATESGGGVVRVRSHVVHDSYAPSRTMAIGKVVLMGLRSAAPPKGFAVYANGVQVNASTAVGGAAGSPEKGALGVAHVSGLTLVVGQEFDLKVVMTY
Description: as §1, §2

[6] = target: T3, α-D-galactosidase (green coffee bean) (Coffea arabica, UniProt Q42656); assay: Glycosidase assay, α-D-galactosidase (green coffee bean); settings: % inhibition; for α-D-galactosidase coffee bean: Table 6, concentration not given (method: 10 mg/ml solution)
T3 construct: purchased Sigma-Aldrich
T3 sequence (Q42656 16-378): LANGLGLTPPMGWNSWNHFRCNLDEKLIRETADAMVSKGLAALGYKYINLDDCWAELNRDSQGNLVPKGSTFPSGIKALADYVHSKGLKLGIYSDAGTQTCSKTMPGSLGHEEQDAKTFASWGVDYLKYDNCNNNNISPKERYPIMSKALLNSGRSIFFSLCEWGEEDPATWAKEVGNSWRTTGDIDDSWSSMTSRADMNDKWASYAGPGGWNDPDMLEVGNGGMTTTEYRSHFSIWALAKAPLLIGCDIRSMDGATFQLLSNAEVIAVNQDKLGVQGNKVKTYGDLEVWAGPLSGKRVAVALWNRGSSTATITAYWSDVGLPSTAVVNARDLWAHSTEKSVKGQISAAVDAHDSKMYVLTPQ
Description: as §1, §2

[7] = target: T4, amyloglucosidase (A. niger) (Aspergillus niger, UniProt P69328); assay: Glycosidase assay, amyloglucosidase (A. niger); settings: % inhibition; for amyloglucosidase A. niger: Table 6, concentration not given (method: 10 mg/ml solution)
T4 construct: purchased Sigma-Aldrich
T4 sequence (P69328 25-640): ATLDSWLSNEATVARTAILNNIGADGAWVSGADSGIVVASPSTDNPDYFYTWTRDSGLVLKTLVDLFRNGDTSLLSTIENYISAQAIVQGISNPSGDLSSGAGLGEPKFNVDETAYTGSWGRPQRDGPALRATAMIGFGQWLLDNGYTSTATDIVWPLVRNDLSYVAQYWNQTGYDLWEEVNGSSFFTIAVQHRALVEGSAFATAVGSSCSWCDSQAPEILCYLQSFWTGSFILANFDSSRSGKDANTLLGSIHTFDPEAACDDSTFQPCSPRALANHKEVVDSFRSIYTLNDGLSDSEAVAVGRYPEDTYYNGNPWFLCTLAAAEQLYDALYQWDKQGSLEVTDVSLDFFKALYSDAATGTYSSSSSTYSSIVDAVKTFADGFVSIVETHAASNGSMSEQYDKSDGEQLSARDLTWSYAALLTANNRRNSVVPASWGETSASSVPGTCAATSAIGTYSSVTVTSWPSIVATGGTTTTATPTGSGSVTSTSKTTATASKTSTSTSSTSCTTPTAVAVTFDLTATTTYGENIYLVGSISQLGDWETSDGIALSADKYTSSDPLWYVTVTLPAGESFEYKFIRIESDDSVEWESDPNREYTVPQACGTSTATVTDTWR
Description: as §1, §2

α-D-glucosidase (Yeast) = target: T5, α-D-glucosidase (Yeast) (Saccharomyces cerevisiae, UniProt P53341); assay: Glycosidase assay, α-D-glucosidase (Yeast)
T5 construct: purchased Sigma-Aldrich
T5 sequence (P53341 whole entry): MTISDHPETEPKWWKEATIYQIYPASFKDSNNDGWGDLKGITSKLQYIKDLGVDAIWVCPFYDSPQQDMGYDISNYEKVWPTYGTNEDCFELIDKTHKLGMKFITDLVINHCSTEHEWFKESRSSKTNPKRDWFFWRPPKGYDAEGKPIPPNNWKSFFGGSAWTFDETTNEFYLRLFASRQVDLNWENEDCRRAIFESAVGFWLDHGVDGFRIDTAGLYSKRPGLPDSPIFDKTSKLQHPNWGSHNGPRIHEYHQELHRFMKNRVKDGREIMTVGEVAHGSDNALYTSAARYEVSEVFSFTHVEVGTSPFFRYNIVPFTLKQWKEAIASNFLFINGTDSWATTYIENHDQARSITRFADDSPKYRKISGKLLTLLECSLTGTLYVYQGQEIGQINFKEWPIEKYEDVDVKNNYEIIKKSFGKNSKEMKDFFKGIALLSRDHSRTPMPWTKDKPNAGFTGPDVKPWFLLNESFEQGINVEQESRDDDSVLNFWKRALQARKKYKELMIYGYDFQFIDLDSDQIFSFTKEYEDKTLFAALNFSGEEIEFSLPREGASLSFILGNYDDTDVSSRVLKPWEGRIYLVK
Description: as §1, §2

β-D-glucosidase (yeast) = assay: Glycosidase assay, β-D-glucosidase (yeast); settings: Table 16; % inhibition; concentration not given
Description: as §1

[8] = target: T6, β-D-galactosidase (bovine) (Bos taurus, UniProt Q58D55); assay: Glycosidase assay, β-D-galactosidase (bovine)
T6 construct: purchased Sigma-Aldrich
T6 sequence (Q58D55 28-653): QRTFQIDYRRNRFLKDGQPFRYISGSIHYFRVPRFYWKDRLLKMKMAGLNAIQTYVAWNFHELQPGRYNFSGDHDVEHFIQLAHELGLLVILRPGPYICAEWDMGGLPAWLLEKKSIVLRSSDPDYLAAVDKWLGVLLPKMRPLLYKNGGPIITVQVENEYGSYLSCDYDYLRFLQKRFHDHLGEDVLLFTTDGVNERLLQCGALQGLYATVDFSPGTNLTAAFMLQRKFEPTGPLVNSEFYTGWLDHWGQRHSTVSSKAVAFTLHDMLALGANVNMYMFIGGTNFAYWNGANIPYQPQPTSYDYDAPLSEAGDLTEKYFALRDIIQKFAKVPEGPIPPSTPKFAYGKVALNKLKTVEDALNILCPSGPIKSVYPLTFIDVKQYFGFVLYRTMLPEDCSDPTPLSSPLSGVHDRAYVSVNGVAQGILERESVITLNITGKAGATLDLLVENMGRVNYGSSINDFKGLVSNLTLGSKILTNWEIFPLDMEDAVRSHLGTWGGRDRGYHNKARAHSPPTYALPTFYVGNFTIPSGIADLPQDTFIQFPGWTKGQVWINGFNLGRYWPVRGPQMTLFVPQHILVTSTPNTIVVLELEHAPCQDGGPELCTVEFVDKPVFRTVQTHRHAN
Description: as §1, §2

α-L-fucosidase (bovine) = target: T7, α-L-fucosidase (bovine) (Bos taurus, UniProt Q2KIM0); assay: Glycosidase assay, α-L-fucosidase (bovine); settings: Table 16; % inhibition; concentration not given
T7 construct: purchased Sigma-Aldrich
T7 sequence (Q2KIM0 23-468): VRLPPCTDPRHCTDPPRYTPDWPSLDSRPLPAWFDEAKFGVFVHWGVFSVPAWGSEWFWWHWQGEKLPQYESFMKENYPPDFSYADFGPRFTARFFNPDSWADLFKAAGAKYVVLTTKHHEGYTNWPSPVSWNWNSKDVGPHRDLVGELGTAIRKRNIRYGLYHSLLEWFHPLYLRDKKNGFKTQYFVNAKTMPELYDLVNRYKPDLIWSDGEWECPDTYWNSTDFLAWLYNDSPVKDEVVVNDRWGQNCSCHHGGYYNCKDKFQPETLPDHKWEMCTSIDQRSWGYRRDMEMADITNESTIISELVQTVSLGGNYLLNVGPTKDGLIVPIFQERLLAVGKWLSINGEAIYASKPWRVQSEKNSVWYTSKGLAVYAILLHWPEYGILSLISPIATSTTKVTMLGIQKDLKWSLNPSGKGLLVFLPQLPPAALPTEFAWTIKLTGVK
Description: as §1

[9] = tested on: N-acetyl-β-D-gluc (Jack bean); assay: Glycosidase assay, N-acetyl-β-D-gluc (Jack bean)
Description: as §1, §2

β-D-glucosidase (almond) = assay: Glycosidase assay, β-D-glucosidase (almond)
Description: as §1, §2

glycogen phosphorylase = assay: Glycogen phosphorylase assay; settings: for glycogen phosphorylase inhibition: words, no concentration; for GP Inhibition (%): at 400 μM
[10] = target: T8, β-glucuronidase (bovine liver) (Bos taurus, UniProt A3KMY8); assay: Glycosidase assay, β-glucuronidase (bovine liver); settings: Table 6; % inhibition; concentration not given (method: 10 mg/ml solution)
T8 construct: purchased Sigma-Aldrich; host or cells: bovine liver
T8 sequence (A3KMY8 1-652): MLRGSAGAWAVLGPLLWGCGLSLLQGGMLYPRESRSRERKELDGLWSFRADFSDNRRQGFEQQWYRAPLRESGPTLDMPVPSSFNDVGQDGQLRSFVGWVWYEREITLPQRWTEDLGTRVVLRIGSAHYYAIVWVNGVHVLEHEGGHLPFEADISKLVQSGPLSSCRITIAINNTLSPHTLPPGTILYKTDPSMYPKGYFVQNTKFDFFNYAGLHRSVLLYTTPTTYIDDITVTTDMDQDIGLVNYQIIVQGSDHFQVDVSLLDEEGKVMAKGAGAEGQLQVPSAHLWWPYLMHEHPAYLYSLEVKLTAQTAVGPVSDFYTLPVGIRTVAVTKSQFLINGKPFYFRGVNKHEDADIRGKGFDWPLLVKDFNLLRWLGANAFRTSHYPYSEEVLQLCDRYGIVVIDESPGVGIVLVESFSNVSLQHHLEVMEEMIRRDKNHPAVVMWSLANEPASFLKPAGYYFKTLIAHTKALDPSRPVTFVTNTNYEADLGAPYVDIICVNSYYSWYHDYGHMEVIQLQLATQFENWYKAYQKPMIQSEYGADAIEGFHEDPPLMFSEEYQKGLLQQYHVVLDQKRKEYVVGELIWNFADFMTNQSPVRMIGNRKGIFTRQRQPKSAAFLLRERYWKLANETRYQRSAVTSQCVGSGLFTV
Description: as §1, §2

[11] = Table 16, concentration not given
[12] = Table 16, % inhibition, concentration not given
[13] = Table 9, sugar fractions, 10 mM p-nitrophenyl substrate, concentration given only for sucrose (10 mg/ml)
[14] = Table 6, concentration not given (method: 10 mg/ml solution)
[15] = Table 6, % inhibition, concentration not given (method: 10 mg/ml solution)

Structure (SMILES) | glycogen phosphorylase inhibition (glycogen phosphorylase) | Naringinase (P. decumbens) [1, 14] [%] | α-D-mannosidase (Jack bean) [2, 14] [%] | N-acetyl-β-D-gluc (Bovine kidney) [3, 15] [%] | α-D-glucosidase (Bacillus) [4, 15] [%] | β-D-mannosidase Cellulomonas fimi [5] [%] | α-D-glucosidase (Rice) (α-D-glucosidase (rice); [15]) [%] | α-D-galactosidase coffee bean [6] [%] | amyloglucosidase A. niger [7] [%] | α-D-glucosidase (Yeast) (α-D-glucosidase (Yeast); [15]) [%] | β-glucuronidase bovine liver [10] [%] | N-acetyl-β-D-gluc Jack bean [9, 15] [%] | β-D-galactosidase (Bovine) [8, 15] [%] | β-D-glucosidase almond (β-D-glucosidase (almond); [15]) [%] | GP Inhibition (%) (glycogen phosphorylase) | also measured
OC[C@H]1NC[C@@H](O)[C@@H]1O [DAB, 1,4-dideoxy-1,4-imino-D-arabinitol] |  |  |  |  |  |  |  |  |  |  |  |  |  |  |  | Naringinase (P. decumbens) [1, 11]: 3%; α-D-mannosidase (Jack bean) [2, 11]: 3%; N-acetyl-β-D-gluc (Bovine kidney) [3, 12]: −8%; α-D-glucosidase (Bacillus) [4, 12]: 93%; β-D-mannosidase (C. fimi) [5, 11]: 95%; α-D-glucosidase (Rice) (α-D-glucosidase (rice); [12]): 100%; α-D-galactosidase (Green coffee beans) [6, 11]: 7%; Amyloglucosidase [7, 11]: 47%; α-D-glucosidase (Yeast) (α-D-glucosidase (Yeast); [12]): 100%; β-D-glucosidase (yeast) (β-D-glucosidase (yeast)): 100%; β-D-galactosidase (Bovine) [8, 12]: 100%; α-L-fucosidase (Bovine) (α-L-fucosidase (bovine)): 5%
OC[C@H]1O[C@@](CO)(O[C@H]2O[C@H](CO)[C@@H](O)[C@H](O)[C@H]2O)[C@@H](O)[C@@H]1O [sucrose] | do not inhibit |  |  |  |  |  |  |  |  |  |  |  |  |  |  | N-acetyl-β-D-gluc (Bovine kidney) ([3]; Table 9, sucrose 10 mg/ml): 0 % inhibition; α-D-glucosidase (Bacillus) [4, 13]: −7 % inhibition; α-D-glucosidase (Rice) (α-D-glucosidase (rice); [13]): 0 % inhibition; α-D-glucosidase (Yeast) (α-D-glucosidase (Yeast); [13]): 0 % inhibition; N-acetyl-β-D-gluc Jack bean [9, 13]: 0 % inhibition; β-D-galactosidase (Bovine) [8, 13]: 0 % inhibition; β-D-glucosidase almond (β-D-glucosidase (almond); [13]): 0 % inhibition
C[n+]1cccc(C(=O)[O-])c1 [trigonellin HCl, trigonelline] | not greatly inhibitory | 0 | 0 | −8 | −12 | 0 | 0 | 0 | 0 | 0 | 0 | 0 | 0 | 0 | 6.9 | 
OC[C@H]1NCC[C@@H](O)[C@@H]1O [fagomine, Fagomine] | do not inhibit |  |  |  |  |  |  |  |  |  |  |  |  |  |  | 
O=C(O)[C@@H]1CC[C@@H](O)CN1 [compound 900439] |  | −6 | 0 | 9 | 0 | 0 | 0 | −6 | 0 | 0 | 0 | 8 | 0 | 0 |  | 
C[n+]1cc(C(=O)[O-])ccc1O [6OH trig, 6-hydroxytrigonelline] |  | 0 | 0 | 12 | −36 | 0 | 0 | −16 | 0 | 0 | 0 | −11 | 8 | 0 | 11.9 | 
O=C(O)[C@@H]1CC[C@@H](O)CN1 [drawing 7] |  |  |  |  |  |  |  |  |  |  |  |  |  |  | 0 | 
